Experiments:
[1] = test system: fibrosis-related gene expression in explanted human lung tissue from patients with idiopathic pulmonary fibrosis; experiment: nCounter Fibrosis Panel gene expression in precision cut lung slices from IPF explants; format: cell-based; conditions: IPF PCLS, 7 days, vs DMSO
Text: Fibrosis-related gene expression in explanted human lung tissue from patients with idiopathic pulmonary fibrosis was examined in order to determine what impact combining Compound 5 treatment with standard-of-care drugs nintedanib or pirfenidone, has on the expression of such genes.
Samples used for this analysis are a subset (n = 4 of 7) of the lungs previously reported on in Decaris et al., Respir Res (2021) 22:265 (FIGS. 6 A and B). Briefly, tissue samples from patients with IPF were acquired at the time of lung transplantation. Precision cut lung slices were generated from the explants and cultured for 7 days in the presence of inhibitors (Compound 5, nintedanib, pirfenidone) at clinically relevant concentrations or vehicle (DMSO). Treated slices were lysed in mRNA-compatible buffer for gene expression analysis. For this study, the lysate from n = 6 slices per treatment per lung were pooled for analysis using the nCounter Fibrosis Panel (Nanostring) on the nCounter Max analyzer (Nanostring). This commercially available panel of 770 genes includes genes related to initial tissue damage response, chronic inflammation, proliferation of pro-fibrotic cells, and tissue modification leading to fibrotic disease. Technical quality control and normalization of raw Nanostring mRNA count data was performed using an R framework developed by Bhattacharya et al. (Bhattacharya A. et al., Brief Bioinform. 2021 May 20;22(3):bbaa163). The R packages limma (see URL www.bioconductor.org/packages/release/bioc/html/limma.html) and voom (Law, C.W. et al., Genome Biol. 2014 Feb 3;15(2):R29) were used to detect differentially expressed genes. Benjamini-Hochberg False Discovery Rate (FDR = 5%) was used to adjust p-values for multiple comparisons.

[2] = test system: Type I Collagen gene Col1a1 expression; experiment: Precision cut lung slices of mice under acute bleomycin exposure; format: cell-based, mouse; conditions: slices cultured 3 days; integrin inhibitors at IC50, pan-αv and ALK5 inhibitors at 10x IC50
[3] = test system: IPF-derived human lung fibroblasts; experiment: LAP adhesion assay (xCELLigence cell index), lung fibroblasts; format: cell-based; conditions: IPF-derived lung fibroblasts (express αvβ1)
Experimental: Two latency associated peptide (LAP) adhesion binding assays were devised using primary human lung cells, including normal (healthy) human bronchial epithelial cells and human lung fibroblasts (healthy and IPF).
Human lung fibroblasts derived from normal and IPF lung tissue are known to express αvβ1 integrin. […] In the assay, the IPF-derived human lung fibroblasts were separately incubated with: the αvβ1-selective small molecule inhibitor; the selective antibody αvβ6 inhibitor, 3G9; and compound 5.

Compound: COCCN(CCCCc1ccc2c(n1)NCCC2)CC[C@H](Nc1ncnc2ccccc12)C(=O)O [Compound 5, (S)-4-((2-methoxyethyl)(4-(5,6,7,8-tetrahydro-1,8-naphthyridin-2-yl)butyl)amino)-2-(quinazolin-4-ylamino)butanoic acid]
- % Reduction of APOC2 expression [1]: -1.20%
- % Reduction of CDH2 expression [1]: 23.87%
- % Reduction of COL1A1 expression [1]: 38.78%
- % Reduction of COL4A2 expression [1]: 17.74%
- % Reduction of COL5A3 expression [1]: 30.59%
- % Reduction of FAP expression [1]: 37.30%
- % Reduction of FCGR3A/B expression [1]: 28.54%
- % Reduction of ITGAS expression [1]: 26.20%
- % Reduction of ITGB3 expression [1]: -2.48%
- % Reduction of LOX expression [1]: 39.38%
- % Reduction of LOXL2 expression [1]: 15.32%
- % Reduction of NID1 expression [1]: 19.25%
- % Reduction of PDGFRB expression [1]: 37.29%
- % Reduction of POSTN expression [1]: 48.61%
- % Reduction of SERPINE1 expression [1]: 35.77%
- % Reduction of SERPINH1 expression [1]: 22.68%
- % Reduction of SPP1 expression [1]: -15.73%
- % Reduction of TGFB1 expression [1]: 1.68%
- % Reduction of THBS2 expression [1]: 31.47%
- logFC of ALDH7A1 expression [1]: 0.57
- logFC of APOA2 expression [1]: 0.6135
- logFC of CCL13 expression [1]: 0.9445
- logFC of CD19 expression [1]: 0.5301
- logFC of CIITA expression [1]: 0.5895
- logFC of COL1A2 expression [1]: -0.8062
- logFC of COL3A1 expression [1]: -0.7449
- logFC of COL5A1 expression [1]: -0.9282
- logFC of COL6A3 expression [1]: -0.8313
- logFC of COL10A1 expression [1]: -2.782
- logFC of CXCL2 expression [1]: 0.7069
- logFC of CXCR4 expression [1]: -0.7822
- logFC of FAP expression [1]: -0.6735
- logFC of FN1 expression [1]: -0.662
- logFC of FZD5 expression [1]: 0.4466
- logFC of GPC4 expression [1]: 0.486
- logFC of GREM1 expression [1]: -0.8269
- logFC of IFI6 expression [1]: 0.9391
- logFC of IFI35 expression [1]: 0.4412
- logFC of LOX expression [1]: -0.722
- logFC of LOXL1 expression [1]: -0.6279
- logFC of LTA expression [1]: 0.4994
- logFC of MARCO expression [1]: -0.9183
- logFC of MET expression [1]: 0.6707
- logFC of MMP8 expression [1]: -0.8754
- logFC of MMP11 expression [1]: -0.6749
- logFC of NOS1 expression [1]: 0.6684
- logFC of OAS1 expression [1]: 0.6104
- logFC of PDGFRB expression [1]: -0.6732
- logFC of PECAM1 expression [1]: -0.8251
- logFC of PLPP4 expression [1]: -0.6364
- logFC of POSTN expression [1]: -0.9604
- logFC of PTGER4 expression [1]: 0.439
- logFC of SERPINE1 expression [1]: -0.6387
- logFC of SMAD3 expression [1]: 0.4528
- logFC of TIMP1 expression [1]: -0.6101
- logFC of TNF expression [1]: 0.4803
- logFC of TTN expression [1]: 0.5832
- logFC of WWC1 expression [1]: 0.5885
- logFC of XAF1 expression [1]: 0.4529
- Type I Collagen gene Col1a1 expression vs DMSO control [2]: decreased Type I Collagen gene Col1a1 expression substantially
- inhibition of cell adhesion to LAP [3]: substantially inhibited

Source: patent publication US20230293519A1, “INTEGRIN INHIBITORS AND USES THEREOF IN COMBINATION WITH OTHER AGENTS” (Pliant Therapeutics, Inc., priority 2021, published 2023)
